The source of these data is patent US8513220B2, “Aromatic compounds having sphingosine-1-phosphonate (S1P) receptor activity” (Allergan, Inc., priority 2010, dated 2013).

The target of one test is T1, human S1P1 receptor (Homo sapiens, UniProt P21453).
T1 construct: expressed in transfected cells; membranes used
Put plainly: GTP γ35S binding assay for S1P1 activity. Format: biochemical. The procedure: Novel compounds were synthesized and tested for S1P1 activity using the GTP γ^35S binding assay. These compounds may be assessed for their ability to activate or block activation of the human S1P1 receptor in cells stably expressing the S1P1 receptor. GTP γ^35S binding was measured in the medium containing (mM) HEPES 25, pH 7.4, MgCl2 10, NaCl 100, dithitothreitol 0.5, digitonin 0.003%, 0.2 nM GTP γ^35S, and 5 μg membrane protein in a volume of 150 μl. Test compounds were included in the concentration range from 0.08 to 5,000 nM unless indicated otherwise. Membranes were incubated with 100 μM 5′-adenylylimmidodiphosphate for 30 min, and subsequently with 10 μM GDP for 10 min on ice. Drug solutions and membrane were mixed, and then reactions were initiated by adding GTP γ^35S and continued for 30 min at 25° C. Reaction mixtures were filtered over Whatman GF/B filters under vacuum, and washed three times with 3 mL of ice-cold buffer (HEPES 25, pH7.4, MgCl2 10 and NaCl 100). Filters were dried and mixed with scintillant, and counted for ^35S activity using a […]. Agonist-induced GTP γ^35S binding was obtained by subtracting that in the absence of agonist. Binding data were analyzed using a non-linear regression method. In case of antagonist assay, the reaction mixture contained 10 nM S1P in the presence of test antagonist at concentrations ranging from 0.08 to 5000 nM.
Activity potency: S1P1 receptor from GTP γ^35S: nM, (EC50)
On the technique in general: GTPγS resists hydrolysis and so accumulates on activated G proteins.

The subject of the next test is lymphocytes in blood. Nature of the test: Lymphopenia assay in mice (in vivo blood lymphocyte depletion). The note with it: female C57BL6 mice, 10 mg/Kg subcutaneous, after 5 h of drug application. The protocol: Test drugs are prepared in a solution containing 3% (w/v) 2-hydroxy propyl β-cyclodextrin (HPBCD) and 1% DMSO to a final concentration of 1 mg/ml, and subcutaneously injected to female C57BL6 mice (CHARLES RIVERS) weighing 20-25 g at the dose of 10 mg/Kg. Blood samples are obtained by puncturing the submandibular skin with a Goldenrod animal lancet at 5, 24, 48, 72, and 96 hrs post drug application. Blood is collected into microvettes (SARSTEDT) containing EDTA tripotassium salt. Lymphocytes in blood samples are counted using a HEMAVET Multispecies Hematology System, HEMAVET HV950FS (Drew Scientific Inc.). (Hale, J. et al Bioorg. & Med. Chem. Lett. 14 (2004) 3351).
A lymphopenia assay in mice; as previously described, was employed to measure the in vivo blood lymphocyte depletion after dosing with: • (3-{[5-(4-Hexyl-phenyl)-6-thiophen-2-yl-pyridin-2-ylmethyl]-amino}-propyl)-phosphonic acid, Compound 2 (FIG. 1); • (3-{[6-(5-Fluoro-thiophen-2-yl)-5-(4-hexyl-phenyl)-pyridin-2-ylmethyl]-amino}-propyl)-phosphonic acid, Compound 3 (FIG. 2); • (3-{[5-(4-Hexyl-3-propyl-phenyl)-6-thiophen-2-yl-pyridin-2-ylmethyl]-amino}-propyl)-phosphonic acid, Compound 4 (FIG. 3); • [3-({5-[4-(3-Phenyl-propyl)-phenyl]-6-thiophen-2-yl-pyridin-2-ylmethyl}-amino)-propyl]-phosphonic acid, Compound 5 (FIG. 4); • (3-{[5-(4-Hexyl-phenyl)-6-thiophen-3-yl-pyridin-2-ylmethyl]-amino}-propyl)-phosphonic acid, Compound 6 (FIG. 5); • (3-{[5-(4-Hexyl-phenyl)-6-oxazol-4-yl-pyridin-2-ylmethyl]-amino}-propyl)-phosphonic acid, Compound 7 (FIG. 6); • (3-{[6-Furan-2-yl-5-(4-hexyl-phenyl)-pyridin-2-ylmethyl]-amino}-propyl)-phosphonic acid, Compound 9 (FIG. 7); • [3-({6-Phenyl-5-[4-(3-phenyl-propyl)-phenyl]-pyridin-2-ylmethyl}-amino)-propyl]-phosphonic acid, Compound 14 (FIGS. 8) and • (3-{[5-(4-Hexyl-3-propyl-phenyl)-6-phenyl-pyridin-2-ylmethyl]-amino}-propyl)-phosphonic acid, Compound 16 (FIG. 9).
These S1P agonist (or modulator) is useful for S1P-related diseases, and exemplified by the lymphopenia in vivo response. In general, test drugs Compound 3 and 16 were prepared in a solution containing 3% (w/v) 2-hydroxy propyl β-cyclodextrin (HPBCD) and 1% DMSO to a final concentration of 1 mg/ml, and subcutaneously injected to female C57BL6 mice (CHARLES RIVERS) weighing 20-25 g at the dose of 10 mg/Kg. Blood samples were obtained by puncturing the submandibular skin with a Goldenrod animal lancet at 5, 24, 48, and 72 hrs post drug application. Blood was collected into microvettes (SARSTEDT) containing EDTA tripotassium salt. Lymphocytes in blood samples were counted using a HEMAVET Multispecies Hematology System, HEMAVET HV950FS (Drew Scientific Inc.). Results are shown in the following figures below that depict lowered lymphocyte count after 5 hours (<1 number of lymphocytes 10^3/μL blood).

T1 sequence (P21453 whole entry): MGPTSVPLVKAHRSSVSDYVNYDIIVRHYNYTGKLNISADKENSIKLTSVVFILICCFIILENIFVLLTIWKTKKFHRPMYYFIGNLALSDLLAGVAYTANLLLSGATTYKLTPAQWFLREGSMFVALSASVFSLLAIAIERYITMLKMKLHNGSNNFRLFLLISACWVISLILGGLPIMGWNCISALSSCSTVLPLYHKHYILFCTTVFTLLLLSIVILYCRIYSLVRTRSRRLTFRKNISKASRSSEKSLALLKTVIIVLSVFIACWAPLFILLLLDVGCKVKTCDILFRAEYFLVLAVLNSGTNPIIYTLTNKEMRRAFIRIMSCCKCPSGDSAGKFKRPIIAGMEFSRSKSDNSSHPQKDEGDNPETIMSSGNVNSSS

As usually defined, the EC50 is the concentration giving half of the maximal effect. On to `CCCCCCc1ccc(-c2ccc(CNCCCP(=O)(O)O)nc2-c2ccccc2)cc1CCC` [Compound 16, (3-{[5-(4-Hexyl-3-propyl-phenyl)-6-phenyl-pyridin-2-ylmethyl]-amino}-propyl)-phosphonic acid], for which, at human S1P1 receptor (S1P1 receptor GTPγ^35S, 5 μM, read-out: % STIMULATION @ 5 μM), the activation at 5 µM amounted to 73.1%. Besides, the EC50 on human S1P1 receptor (S1P1 receptor, membranes, compounds 0.08 to 5,000 nM, read-out: GTPγ^35S EC50) stood at 29.6 nM. Further, the “number of lymphocytes found in the blood” value with lymphocytes in blood is listed as “reduced”.
